Measured values from PubChem BioAssay (NCI).
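Where inhibition never reached the appropriate level, the endpoint shown equals the highest concentration tested. Otherwise, values were interpolated linearly from a five-concentration, 48-hour dose response in 96-well plates. GI50 = concentration required for 50% inhibition of growth. TGI marks complete inhibition of growth.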

What was measured:
Experiment in all cases: inhibition of tumour cell growth, NCI panel, 48 h
[1] = system: 786-0 renal
[2] = system: A549 NSCLC
[3] = system: ACHN renal
[4] = system: CCRF-CEM leukemia
[5] = system: COLO 205 colon
[6] = system: DU-145 prostate
[7] = system: EKVX NSCLC
[8] = system: HCC-2998 colon
[9] = system: HCT-116 colon
[10] = system: HCT-15 colon
[11] = system: HL-60(TB) leukemia
[12] = system: HOP-62 NSCLC
[13] = system: HOP-92 NSCLC
[14] = system: HS 578T breast
[15] = system: HT29 colon
[16] = system: IGROV1 ovarian
[17] = system: K-562 leukemia
[18] = system: KM12 colon
[19] = system: M14 melanoma
[20] = system: MALME-3M melanoma
[21] = system: MCF7 breast
[22] = system: MDA-MB-231 breast
[23] = system: MDA-MB-435
[24] = system: MOLT-4 leukemia
[25] = system: NCI-H226 lung
[26] = system: NCI-H23 lung
[27] = system: NCI-H460 lung
[28] = system: NCI/ADR-RES ovarian
[29] = system: OVCAR-4 ovarian
[30] = system: OVCAR-5 ovarian
[31] = system: OVCAR-8 ovarian
[32] = system: RPMI-8226 leukemia
[33] = system: RXF 393 renal
[34] = system: SF-268 CNS
[35] = system: SF-295 CNS
[36] = system: SF-539 CNS
[37] = system: SK-MEL-28 melanoma
[38] = system: SK-MEL-5 melanoma
[39] = system: SK-OV-3 ovarian
[40] = system: SN12C renal
[41] = system: SNB-19 CNS
[42] = system: SNB-75 CNS
[43] = system: SR leukemia
[44] = system: SW-620 colon
[45] = system: T-47D breast
[46] = system: TK-10 renal
[47] = system: U251 CNS
[48] = system: UACC-257 melanoma
[49] = system: UACC-62 melanoma
[50] = system: UO-31 renal
[51] = system: A498 renal
[52] = system: BT-549 breast
[53] = system: CAKI-1 renal
[54] = system: LOX IMVI melanoma
[55] = system: NCI-H522 lung
[56] = system: OVCAR-3 ovarian
[57] = system: PC-3 prostate
[58] = system: SK-MEL-2 melanoma

In the case of N#CCN1CCCCCc2ccccc21, the TGI [1] is reported as > 100 µM, the TGI [2] is reported as > 100 µM and the TGI [3] is reported as > 100 µM. The TGI [4] was > 100 µM, the TGI [5] was > 100 µM and the TGI [6] was > 100 µM. For the same compound, the TGI [7] was > 100 µM, the TGI [8] was > 100 µM and the TGI [9] was > 100 µM. For the same compound, the TGI [10] was > 100 µM, the TGI [11] was > 100 µM and the TGI [12] was > 100 µM. The TGI [13] was > 100 µM, the TGI [14] was > 100 µM and the TGI [15] was > 100 µM. For the same compound, the TGI [16] was > 100 µM, the TGI [17] was > 100 µM and the TGI [18] was > 100 µM. The TGI [19] was > 100 µM, the TGI [20] was > 100 µM and the TGI [21] was > 100 µM. The TGI [22] was > 100 µM, the TGI [23] was > 100 µM and the TGI [24] was > 100 µM. For the same compound, the TGI [25] was > 100 µM, the TGI [26] was > 100 µM and the TGI [27] was > 100 µM. For the same compound, the TGI [28] was > 100 µM, the TGI [29] was > 100 µM and the TGI [30] was > 100 µM. The TGI [31] was > 100 µM, the TGI [32] was > 100 µM and the TGI [33] was > 100 µM. For the same compound, the TGI [34] was > 100 µM, the TGI [35] was > 100 µM and the TGI [36] was > 100 µM. For the same compound, the TGI [37] was > 100 µM, the TGI [38] was > 100 µM and the TGI [39] was > 100 µM. For the same compound, the TGI [40] was > 100 µM, the TGI [41] was > 100 µM and the TGI [42] was > 100 µM. The TGI [43] was > 100 µM, the TGI [44] was > 100 µM and the TGI [45] was > 100 µM. The TGI [46] was > 100 µM, the TGI [47] was > 100 µM and the TGI [48] was > 100 µM. The TGI [49] was > 100 µM and the TGI [50] was > 100 µM.
C/C=C(\C)C(=O)N[C@H]1[C@@H](OC(C)=O)C[C@]2(C)C3CC[C@@]4(C)C(CC[C@@H]4C(C)N(C)C)C3CCC2[C@H]1O (some centres not stated) gave a GI50 [1] of 5.22 µM, a TGI [1] of 16.3 µM and a GI50 [51] of 2.73 µM. It also gave a TGI [51] of 20 µM, a GI50 [2] of 5.41 µM and a TGI [2] of 20.3 µM. For the same compound, the GI50 [3] was 5.74 µM, the TGI [3] was 17.9 µM and the GI50 [52] was 4.81 µM. For the same compound, the TGI [52] was 21.6 µM, the GI50 [53] was 3.2 µM and the TGI [53] was 14 µM. The GI50 [4] was 3.57 µM, the TGI [4] was 21.2 µM and the GI50 [5] was 2.15 µM. The TGI [5] was 5.91 µM, the GI50 [6] was 6.4 µM and the TGI [6] was 21.3 µM. It also gave a GI50 [7] of 5.63 µM, a TGI [7] of 31.4 µM and a GI50 [8] of 7.15 µM. The TGI [8] was 21.7 µM, the GI50 [9] was 1.88 µM and the TGI [9] was 4.34 µM. It also gave a GI50 [10] of 1.46 µM, a TGI [10] of 4.22 µM and a GI50 [11] of 4.53 µM. The TGI [11] was 13.6 µM, the GI50 [12] was 3.42 µM and the TGI [12] was 9.29 µM. For the same compound, the GI50 [13] was 1.04 µM, the TGI [13] was 15.5 µM and the GI50 [14] was 12.4 µM. For the same compound, the TGI [14] was 43.1 µM, the GI50 [15] was 0.738 µM and the TGI [15] was 6.55 µM. For the same compound, the GI50 [16] was 5.88 µM, the TGI [16] was 16.8 µM and the GI50 [17] was 1.32 µM. The TGI [17] was 5.02 µM, the GI50 [18] was 4.35 µM and the TGI [18] was 15.5 µM. It also gave a GI50 [54] of 1.78 µM, a TGI [54] of 4.02 µM and a GI50 [19] of 2.02 µM. The TGI [19] was 3.72 µM, the GI50 [20] was 2.03 µM and the TGI [20] was 6.43 µM. It also gave a GI50 [21] of 3.71 µM, a TGI [21] of 18.1 µM and a GI50 [22] of 3.23 µM. The TGI [22] was 10.7 µM, the GI50 [23] was 2.27 µM and the TGI [23] was 6.78 µM. The GI50 [24] was 6.19 µM, the TGI [24] was 33.8 µM and the GI50 [25] was 5.53 µM. The TGI [25] was 22 µM, the GI50 [26] was 11.7 µM and the TGI [26] was 28.2 µM. It also gave a GI50 [27] of 2.18 µM, a TGI [27] of 5.8 µM and a GI50 [55] of 4.99 µM. For the same compound, the TGI [55] was 15.3 µM, the GI50 [28] was 9.79 µM and the TGI [28] was 30.3 µM. The GI50 [56] was 5.56 µM, the TGI [56] was 19.1 µM and the GI50 [29] was 5.29 µM. It also gave a TGI [29] of 31.5 µM, a GI50 [30] of 13.8 µM and a TGI [30] of 28.2 µM. It also gave a GI50 [31] of 11.2 µM, a TGI [31] of 43.4 µM and a GI50 [57] of 2.88 µM. For the same compound, the TGI [57] was 24.2 µM, the GI50 [33] was 1.71 µM and the TGI [33] was 14.4 µM. It also gave a GI50 [34] of 2.9 µM, a TGI [34] of 13.3 µM and a GI50 [35] of 3.44 µM. For the same compound, the TGI [35] was 14.9 µM, the GI50 [36] was 1.87 µM and the TGI [36] was 4.97 µM. For the same compound, the GI50 [58] was 2.3 µM, the TGI [58] was 6.38 µM and the GI50 [37] was 1.83 µM. It also gave a TGI [37] of 3.67 µM, a GI50 [38] of 1.6 µM and a TGI [38] of 3.77 µM. It also gave a GI50 [39] of 7.95 µM, a TGI [39] of 22.5 µM and a GI50 [40] of 5.55 µM. The TGI [40] was 19.6 µM, the GI50 [41] was 13.6 µM and the TGI [41] was 28.9 µM. For the same compound, the GI50 [42] was 5.86 µM, the TGI [42] was 20.8 µM and the GI50 [44] was 2.63 µM. It also gave a TGI [44] of 9.44 µM, a GI50 [45] of 2.06 µM and a TGI [45] of 10.3 µM. The GI50 [46] was 8.32 µM, the TGI [46] was 24.5 µM and the GI50 [47] was 4.48 µM. The TGI [47] was 18.3 µM, the GI50 [48] was 1.98 µM and the TGI [48] was 5.16 µM. The GI50 [49] was 1.91 µM, the TGI [49] was 4.13 µM and the GI50 [50] was 3.16 µM. It also gave a TGI [50] of 15.2 µM.
